Reference: ChEMBL document CHEMBL1201862, “PubChem BioAssay data set” (2004)
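These data come from cells grown in 96-well plates and exposed to compound for 48 hours at five concentrations. The concentration for 50% growth inhibition is given as GI50.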 Activity calls are given as the source filed them. Rule as the data show it: active = GI50 up to about 1.1 µM and inactive = higher. Peptide text beside a SMILES is read from it. * marks the point of attachment. Cbz = O=C(OCc1ccccc1)*; Boc = CC(C)(C)OC(=O)*; OBn = c1ccc(CO*)cc1

Columns and labels:
Test in all cases: inhibition of tumour cell growth, NCI panel, 48 h
[1] = test system: 786-0
[2] = test system: A498
[3] = test system: CAKI-1
[4] = test system: DU-145
[5] = test system: HCT-116
[6] = test system: HOP-92
[7] = test system: KM12
[8] = test system: M14
[9] = test system: MDA-N
[10] = test system: MOLT-4
[11] = test system: Malme-3M
[12] = test system: NCI-H23
[13] = test system: OVCAR-4
[14] = test system: RPMI-8226
[15] = test system: SF-295
[16] = test system: SN12C
[17] = test system: SNB-75
[18] = test system: SR
[19] = test system: T47D
[20] = test system: UO-31

Compound | GI50 [1] | GI50 [2] | GI50 [3] | GI50 [4] | GI50 [5] | GI50 [6] | GI50 [7] | GI50 [8] | GI50 [9] | GI50 [10] | GI50 [11] | GI50 [12] | GI50 [13] | GI50 [14] | GI50 [15] | GI50 [16] | GI50 [17] | GI50 [18] | GI50 [19] | GI50 [20]
O=C(O)CCCSc1ccccc1 | > 100 µM (inactive) | > 100 µM (inactive) | > 100 µM (inactive) | > 100 µM (inactive) | > 100 µM (inactive) | > 100 µM (inactive) | > 100 µM (inactive) | > 100 µM (inactive) | > 100 µM (inactive) | > 100 µM (inactive) | > 100 µM (inactive) | > 100 µM (inactive) | > 100 µM (inactive) | > 100 µM (inactive) | > 100 µM (inactive) | > 100 µM (inactive) | > 100 µM (inactive) | > 100 µM (inactive) | > 100 µM (inactive) | > 100 µM (inactive)
COC1=CC(=O)c2c(ccc3ncnc(N)c23)C1=O | 1.78 µM (inactive) | 2.22 µM (inactive) | 1.36 µM (inactive) | 1.82 µM (inactive) | 1.77 µM (inactive) | 1.63 µM (inactive) | 4.41 µM (inactive) | 1.88 µM (inactive) | 0.288 µM (active) | 0.573 µM (active) | 2.63 µM (inactive) | 1.54 µM (inactive) | 0.561 µM (active) | 1.45 µM (inactive) | 3.62 µM (inactive) | 1.87 µM (inactive) | 3.57 µM (inactive) | 0.164 µM (active) | 1.11 µM (active) | 2.31 µM (inactive)
COC(=O)c1ccc2c(O)c(O)ccc2c1 | 15.6 µM (inactive) | 21.3 µM (inactive) | 25.1 µM (inactive) | 16.4 µM (inactive) | 16.7 µM (inactive) | 18.4 µM (inactive) | 17.1 µM (inactive) | 16.4 µM (inactive) | 1.74 µM (inactive) | 4.81 µM (inactive) | 11.8 µM (inactive) | 5.28 µM (inactive) | 14.6 µM (inactive) | 14.7 µM (inactive) | 6.98 µM (inactive) | 9.14 µM (inactive) | 12.8 µM (inactive) | 2.6 µM (inactive) | 19.5 µM (inactive) | 20.7 µM (inactive)
Cc1ccc(N(C(=O)Nc2ccccc2)C2=NCC(C)S2)cc1C (stereo not given) | 20.4 µM (inactive) | 14 µM (inactive) | > 10 µM (inactive) | 31.4 µM (inactive) | 16.4 µM (inactive) | 22.5 µM (inactive) | 17.8 µM (inactive) | 13.4 µM (inactive) | 17.6 µM (inactive) | > 10 µM (inactive) | 20.3 µM (inactive) | 15.7 µM (inactive) | 28.9 µM (inactive) | 20 µM (inactive) | 24.4 µM (inactive) | 13.7 µM (inactive) | 24.4 µM (inactive) | 23.7 µM (inactive) | 14.8 µM (inactive) | 18.5 µM (inactive)
CC(Oc1ccccc1)C(=O)NN (stereo not given) | > 100 µM (inactive) | > 100 µM (inactive) | > 100 µM (inactive) | > 100 µM (inactive) | > 100 µM (inactive) | > 100 µM (inactive) | > 100 µM (inactive) | > 100 µM (inactive) | > 100 µM (inactive) | > 100 µM (inactive) | > 100 µM (inactive) | > 100 µM (inactive) | > 100 µM (inactive) | > 100 µM (inactive) | > 100 µM (inactive) | > 100 µM (inactive) | > 100 µM (inactive) | > 100 µM (inactive) | > 100 µM (inactive) | > 100 µM (inactive)
CN(C(=O)Cc1cc(Cl)c(Cl)cc1N=C=S)[C@H]1CCCC[C@@H]1N1CCCC1 | 12.7 µM (inactive) | 13.5 µM (inactive) | 15.8 µM (inactive) | 14.7 µM (inactive) | 8.49 µM (inactive) | 9.42 µM (inactive) | 14.8 µM (inactive) | 15.5 µM (inactive) | 14.8 µM (inactive) | 3 µM (inactive) | 17.4 µM (inactive) | 15.2 µM (inactive) | 13.3 µM (inactive) | 7.96 µM (inactive) | 16.7 µM (inactive) | 16.6 µM (inactive) | 14.6 µM (inactive) | 1.64 µM (inactive) | 16.1 µM (inactive) | 15.5 µM (inactive)
CCCCC1NC=Nc2c1ccc1c2[nH]c2ccccc21 (stereo not given) | 1.79 µM (inactive) | 14.4 µM (inactive) | 3.77 µM (inactive) | 2.6 µM (inactive) | 1.91 µM (inactive) | 3.94 µM (inactive) | 5.82 µM (inactive) | 2.41 µM (inactive) | 1.75 µM (inactive) | 2.05 µM (inactive) | 5.33 µM (inactive) | 1.73 µM (inactive) | 2.7 µM (inactive) | 1.84 µM (inactive) | 2.48 µM (inactive) | 2.89 µM (inactive) | 4.02 µM (inactive) | 1.28 µM (inactive) | 1.45 µM (inactive) | 10.3 µM (inactive)
CCC(C#N)(c1ccccc1)N(CCc1ccccc1)C(=O)c1ccccc1 (stereo not given) | 13.3 µM (inactive) | 24.2 µM (inactive) | > 100 µM (inactive) | > 100 µM (inactive) | 24.8 µM (inactive) | 12.6 µM (inactive) | > 100 µM (inactive) | > 100 µM (inactive) | > 100 µM (inactive) | > 100 µM (inactive) | > 100 µM (inactive) | 76.9 µM (inactive) | 10.8 µM (inactive) | > 100 µM (inactive) | 29.6 µM (inactive) | 85.5 µM (inactive) | 29.5 µM (inactive) | > 100 µM (inactive) | > 100 µM (inactive) | 64.3 µM (inactive)
CC1(C)CCCC2CC2CCC(C)(C)C1=O (stereo not given) | 28.8 µM (inactive) | > 100 µM (inactive) | > 100 µM (inactive) | > 100 µM (inactive) | 78.2 µM (inactive) | 74.8 µM (inactive) | 56.2 µM (inactive) | 42 µM (inactive) | 29.5 µM (inactive) | 29.2 µM (inactive) | 58.3 µM (inactive) | > 100 µM (inactive) | > 100 µM (inactive) | 25.2 µM (inactive) | > 100 µM (inactive) | 71 µM (inactive) | 71 µM (inactive) | 10.8 µM (inactive) | > 100 µM (inactive) | > 100 µM (inactive)
CCCCNC(=O)c1cc2c(cc1Cl)Sc1nccn1S2(=O)=O | 55.6 µM (inactive) | > 100 µM (inactive) | 18.7 µM (inactive) | > 100 µM (inactive) | 31 µM (inactive) | 25.4 µM (inactive) | > 100 µM (inactive) | > 100 µM (inactive) | 61.4 µM (inactive) | 79.6 µM (inactive) | > 100 µM (inactive) | > 100 µM (inactive) | 43.7 µM (inactive) | > 100 µM (inactive) | > 100 µM (inactive) | > 100 µM (inactive) | 17.5 µM (inactive) | 57.3 µM (inactive) | 64 µM (inactive) | > 100 µM (inactive)
COC(=O)C1CCC(=O)N1C(c1ccc2c(c1)OCO2)c1ccc2c(c1)OCO2 (stereo not given) | > 100 µM (inactive) | > 100 µM (inactive) | > 100 µM (inactive) | > 100 µM (inactive) | > 100 µM (inactive) | > 100 µM (inactive) | > 100 µM (inactive) | > 100 µM (inactive) | > 100 µM (inactive) | > 100 µM (inactive) | > 100 µM (inactive) | > 100 µM (inactive) | > 100 µM (inactive) | > 100 µM (inactive) | > 100 µM (inactive) | > 100 µM (inactive) | > 100 µM (inactive) | > 100 µM (inactive) | > 100 µM (inactive) | 51.9 µM (inactive)
CC1(C)CCC2=C(O1)/C(=N\Nc1ccc(S(N)(=O)=O)cc1)c1ccccc1C2=O | 7.5 µM (inactive) | 2.37 µM (inactive) | 14.8 µM (inactive) | 12.5 µM (inactive) | 11.6 µM (inactive) | 12.4 µM (inactive) | 10.5 µM (inactive) | 16.1 µM (inactive) | 2.84 µM (inactive) | 27.4 µM (inactive) | 3.3 µM (inactive) | 6.55 µM (inactive) | 5.81 µM (inactive) | 27.6 µM (inactive) | 11.8 µM (inactive) | 11.2 µM (inactive) | 4.38 µM (inactive) | 5.61 µM (inactive) | 15.6 µM (inactive) | 18.2 µM (inactive)
CC(Oc1ccc(Cl)cc1Cl)C(=O)NN1C(=O)CSC1c1ccccc1 (stereo not given) | 43.5 µM (inactive) | 42.8 µM (inactive) | 20.4 µM (inactive) | 91 µM (inactive) | 45.7 µM (inactive) | 27.7 µM (inactive) | 64 µM (inactive) | 54.2 µM (inactive) | > 100 µM (inactive) | > 100 µM (inactive) | 40.9 µM (inactive) | 86.5 µM (inactive) | 32.1 µM (inactive) | 49.2 µM (inactive) | 60 µM (inactive) | 69.2 µM (inactive) | 34.7 µM (inactive) | 3.89 µM (inactive) | 56.8 µM (inactive) | > 100 µM (inactive)
COC(=O)C(CCCCNC(=O)OCc1ccccc1)NC(=O)C(CCC(=O)OCc1ccccc1)NC(=O)OC(C)(C)C (stereo not given) (Boc-Glu(OBn)-Lys(Cbz)-OMe; configuration not given here) | > 100 µM (inactive) | 16.1 µM (inactive) | 86.7 µM (inactive) | > 100 µM (inactive) | > 100 µM (inactive) | > 100 µM (inactive) | > 100 µM (inactive) | > 100 µM (inactive) | > 100 µM (inactive) | > 100 µM (inactive) | 54.3 µM (inactive) | > 100 µM (inactive) | 57.3 µM (inactive) | > 100 µM (inactive) | 64.4 µM (inactive) | > 100 µM (inactive) | > 100 µM (inactive) | > 100 µM (inactive) | > 100 µM (inactive) | > 100 µM (inactive)
